# Experimental data as given in patent US20250177394A1, “COMBINATIONS OF CTPS1 AND BCL2 INHIBITORS FOR CANCER” (Step Pharma S.A.S., priority 2022, published 2025).
# Tests used:
# [1] = system: human mantle cell lymphoma cell line; assay: Western blot after exposure to CTPS1 inhibitor; type: cell-based; settings: 24 hour exposure versus control; GAPDH loading control
# Method: Cells were incubated on ice for 40 minutes with lysis buffer then centrifuged at 11000 rpm for 30′. Total protein extracts were collected from supernatants and protein concentrations determined using a colorimetric assay. 30 μg of proteins were separated by SDS-PAGE using precast gels and transferred to membranes using the Trans-Blot Turbo system. Membranes were blocked for 1 hour in a 5% dry milk, TBS-Tween20 solution and incubated with primary antibodies overnight at 4° C. Membranes were incubated for at least 1 hour with secondary antibodies, either goat anti-mouse or goat anti-rabbit conjugated with peroxidase. Chemiluminescence was determined using the Clarity Western ECL Substrate on the Fusion FX imaging system.
# [2] = system: human mantle cell lymphoma cell lines; assay: RNA sequencing after exposure to CTPS1 inhibitor; type: cell-based; settings: 24 hour exposure at IC50 versus control
# Method: RNA was obtained from cancer cell lines treated with CTPS1-IA at IC50 or control for 24 hours. Libraries were prepared from 10 ng total RNA. mRNA poly(A) tails were tagged with universal adapters, sample-specific barcodes and unique molecular identifiers using template switching reverse transcriptase. Barcoded cDNAs from multiple samples were then pooled, amplified and tagmented using a transposon-fragmentation approach which enriches for 3′ ends of cDNA. A library of 350-800 bp length was run on an Illumina NovaSeq 6000 using NovaSeq 6000 SP Reagent Kit 100 cycles (ref #20027464). Raw fastq pairs used for analysis matched the following criteria: the 16 bases of the first read correspond to 6 bases for a sample-specific barcode and 10 bases for a unique molecular identifier. The second read (58 bases) corresponds to the captured poly(A) RNAs sequence. Demultiplexing of these fastq pairs was performed to generate one single-end fastq for each of the 96 samples. fastq files were then aligned with bwa to reference mRNA sequences and the mitochondrial genomic sequence (UCSC). DGE profiles were generated by parsing the alignment files (.bam) and counting for each sample the number of unique molecular identifiers associated with each RefSeq gene. Reads aligned on multiple genes, containing more than one mismatch with the reference sequence, or containing a polyA pattern were discarded. […]
# human CTPS1 versus CTPS2 = assay: Human CTPS1 versus CTPS2 selectivity assessment by RapidFire/MS; type: biochemical; settings: fold selectivity between CTPS1 and CTPS2
# Method: The enzyme inhibitory activities against each target isoform of interest were determined for compounds using an optimised RapidFire high-throughput mass spectrometry (RF/MS) assay format. RF/MS assays for both human CTPS1 and CTPS2 were performed in assay buffer consisting of 50 mM HEPES (Merck), 20 mM MgCl2, 5 mM KCl, 1 mM DTT, 0.01% Tween-20, pH to 8.0 accordingly. Human full-length active C-terminal FLAG-His-tag CTPS1 (UniProtKB—P17812, CTPS[1-591]-[…], SEQ ID NO: 1) was obtained from Proteros biostructures GmbH. Human full length active C-terminal FLAG-His-Avi tagged CTPS2 (UniProtKB—Q9NRF8, CTPS2 [1-586]-[…], SEQ ID NO: 2) was obtained from Harker Bio.
# Human CTPS (1 or 2) protein was prepared in 1× assay buffer to the final working protein concentration required for the reaction. A 2 uL volume per well of 2×CTPS (1 or 2) protein was mixed with 40 nL of compound using acoustic (ECHO) delivery and incubated for 10 minutes at 25° C. […] Each mixture was incubated for an appropriate amount of time per isoform within the determined linear phase of the reaction at 25° C. […]
# In all cases, the enzyme converts UTP to CTP. […] Readout for data analysis was calculated as the ratio between the peak area of the product CTP and the internal standard ^13C9-^15N3-CTP. […]
# Fold selectivity between CTPS1 and CTPS2 was subsequently calculated according to the following equation: […]
# human CTPS1 = human CTPS1 (Homo sapiens (Human), UniProt P17812); assay: Human CTPS1 enzyme inhibition, ADP-Glo Max assay; type: biochemical; settings: Human CTPS1 Enzyme Inhibition data
# Method: The enzyme inhibitory activities of compounds CTPS1-IA and CTPS1-IB against CTPS1 were determined using the ADP-Glo™ Max assay (Promega, UK).
# Assays for human CTPS1 were performed in 1× assay buffer containing 50 mM Tris, 10 mM MgCl2, 0.01% Tween-20, pH to 8.0 accordingly. Finally, immediately before use, L-cysteine was added to the 1× assay buffer to a final concentration of 2 mM. All reagents are from Sigma-Aldrich unless specified otherwise. Human full length active C-terminal FLAG-His8-tag CTPS1 (UniProtKB—P17812, CTPS[1-591]-[…], SEQ ID NO: 1) was obtained from Proteros biostructures GmbH.
# 3× human CTPS1 protein was prepared in 1× assay buffer to the final working protein concentration required for the reaction. […] The enzymatic reaction was then initiated by addition of a 2 uL per well volume of a pre-mixed substrate mix (UltraPure ATP from ADP-Glo™ Max kit (0.31 mM), GTP (0.034 mM), UTP (0.48 mM) and L-glutamine (0.186 mM)) and the mixture was incubated for an appropriate amount of time within the determined linear phase of the reaction at 25° C. under sealed plate conditions with constant agitation at 500 revolutions per minute (rpm). ADP-Glo™ Max reagent was added for 60 minutes (6 μL per well) and subsequently ADP-Go™ Max development reagent was added for 60 minutes (12 uL per well) prior to signal detection in a microplate reader (EnVision® Multilabel Reader, Perkin Elmer). […]
# human CTPS1, sequence (P17812 whole entry): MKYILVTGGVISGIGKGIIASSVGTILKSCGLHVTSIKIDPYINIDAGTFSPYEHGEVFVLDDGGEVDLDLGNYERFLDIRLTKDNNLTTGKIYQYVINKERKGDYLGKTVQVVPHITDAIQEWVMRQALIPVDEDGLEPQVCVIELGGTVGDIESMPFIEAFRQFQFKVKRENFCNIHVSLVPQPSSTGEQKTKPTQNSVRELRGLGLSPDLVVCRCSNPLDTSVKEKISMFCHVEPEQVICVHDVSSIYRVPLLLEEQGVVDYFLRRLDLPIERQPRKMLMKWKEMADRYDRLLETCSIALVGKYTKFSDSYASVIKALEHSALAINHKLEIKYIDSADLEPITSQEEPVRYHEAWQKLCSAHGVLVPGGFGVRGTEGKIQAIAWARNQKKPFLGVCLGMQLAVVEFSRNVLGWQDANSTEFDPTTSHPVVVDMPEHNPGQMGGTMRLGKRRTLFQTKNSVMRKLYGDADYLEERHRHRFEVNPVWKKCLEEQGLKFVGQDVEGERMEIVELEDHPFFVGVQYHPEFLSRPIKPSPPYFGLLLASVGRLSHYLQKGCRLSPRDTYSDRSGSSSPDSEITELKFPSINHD
SMILES,BCL2 protein [1],MCL1 protein [1],BCL2 transcripts [2],MCL1 transcripts [2],Selectivity (human CTPS1 versus CTPS2) [fold],IC50 (human CTPS1) [µM]
"CCOc1cncc(-c2ccc(NC(=O)C3(c4ccnc(NS(=O)(=O)C5CC5)n4)CCOCC3)nc2)n1 [CTPS1-IA, 4-(2-(cyclopropanesulfonamido)pyrimidin-4-yl)-N-(5-(6-ethoxypyrazin-2-yl)pyridin-2-yl)tetrahydro-2H-pyran-4-carboxamide]",increase,decrease,increase,decrease,>60,≤ 0.1
"CCOc1cncc(-c2ccc(NC(=O)C3(c4ccnc(NS(=O)(=O)CC)n4)CCOCC3)nc2)n1 [CTPS1-IB, N-(5-(6-ethoxypyrazin-2-yl)pyridin-2-yl)-4-(2-(ethylsulfonamido)pyrimidin-4-yl)tetrahydro-2H-pyran-4-carboxamide]",,,,,>60,≤ 0.1
